A short description of series [1]: Pharmacokinetics in plasma and lung in mouse. In kind it is in vivo. The following applies: oral aspiration, lung AUC (μg hr/g) to plasma AUC (μg hr/mL). How it is done: Plasma and lung levels of test compounds and ratios thereof were determined in the following manner. BALB/c mice from Charles River Laboratories were used in the assay. Test compounds were individually formulated in 20% propylene glycol in pH 4 citrate buffer at a concentration of 0.2 mg/mL and 50 uL of the dosing solution was introduced into the trachea of a mouse by oral aspiration. At various time points (typically 0.167, 2, 6, 24 hr) post dosing, blood samples were removed via cardiac puncture and intact lungs were excised from the mice. Blood samples were centrifuged (Eppendorf centrifuge, 5804R) for 4 minutes at approximately 12,000 rpm at 4° C. to collect plasma. Lungs were padded dry, weighed, and homogenized at a dilution of 1:3 in sterile water. Plasma and lung levels of test compound were determined by LC-MS analysis against analytical standards constructed into a standard curve in the test matrix. A lung to plasma ratio was determined as the ratio of the lung AUC in μg hr/g to the plasma AUC in μg hr/mL, where AUC is conventionally defined as the area under the curve of test compound concentration vs. time.

The next series concerns IL-13 induced pSTAT6. Kind of series: Murine model of IL-13 induced pSTAT6 induction in lung tissue. Format: in vivo. The note with it: mouse lung; for lung concentration smaller than that of the corresponding compound of the invention by a factor: pharmacodynamic assay, versus Examples 1, 7, 13, 6. How it is done:
Il-13 is an important cytokine underlying the pathophysiology of asthma (Kudlacz et al. Eur. J. Pharmacol, 2008, 582, 154-161). IL-13 binds to cell surface receptors activating members of the Janus family of kinases (JAK) which then phosphorylate STAT6 and subsequently activates further transcription pathways. In the described model, a dose of IL-13 was delivered locally into the lungs of mice to induce the phosphorylation of STAT6 (pSTAT6) which is then measured as the endpoint.
Adult balb/c mice from Harlan were used in the assay. On the day of study, animals were lightly anesthetized with isoflurane and administered either vehicle or test compound (0.5 mg/mL, 50 μL total volume over several breaths) via oral aspiration. Animals were placed in lateral recumbency post dose and monitored for full recovery from anesthesia before being returned to their home cage. Four hours later, animals were once again briefly anesthetized and challenged with either vehicle or IL-13 (0.03 μg total dose delivered, 50 μL total volume) via oral aspiration before being monitored for recovery from anesthesia and returned to their home cage. One hour after vehicle or IL-13 administration, lungs were collected for both pSTAT6 detection using an anti-pSTAT6 ELISA (rabbit mAb capture/coating antibody; mouse mAb detection/report antibody: anti-pSTAT6-pY641; secondary antibody: anti-mouse IgG-HRP) and analyzed for total drug concentration as described above in Assay 4.
Selected compounds of the invention were tested in the assay. Activity in the model is evidenced by a decrease in the level of pSTAT6 present in the lungs of treated animals at 5 hours compared to the vehicle treated, IL-13 challenged control animals. The difference between the control animals which were vehicle-treated, IL-13 challenged and the control animals which were vehicle-treated, vehicle challenged dictated the 0% and 100% inhibitory effect, respectively, in any given experiment.

The target in a further series is JAK1 (Homo sapiens (Human), UniProt P23458). The series can be described thus: LanthaScreen JAK1 biochemical assay. The following applies: versus Examples 1, 7, 13, 6.
JAK1, sequence (P23458 whole entry): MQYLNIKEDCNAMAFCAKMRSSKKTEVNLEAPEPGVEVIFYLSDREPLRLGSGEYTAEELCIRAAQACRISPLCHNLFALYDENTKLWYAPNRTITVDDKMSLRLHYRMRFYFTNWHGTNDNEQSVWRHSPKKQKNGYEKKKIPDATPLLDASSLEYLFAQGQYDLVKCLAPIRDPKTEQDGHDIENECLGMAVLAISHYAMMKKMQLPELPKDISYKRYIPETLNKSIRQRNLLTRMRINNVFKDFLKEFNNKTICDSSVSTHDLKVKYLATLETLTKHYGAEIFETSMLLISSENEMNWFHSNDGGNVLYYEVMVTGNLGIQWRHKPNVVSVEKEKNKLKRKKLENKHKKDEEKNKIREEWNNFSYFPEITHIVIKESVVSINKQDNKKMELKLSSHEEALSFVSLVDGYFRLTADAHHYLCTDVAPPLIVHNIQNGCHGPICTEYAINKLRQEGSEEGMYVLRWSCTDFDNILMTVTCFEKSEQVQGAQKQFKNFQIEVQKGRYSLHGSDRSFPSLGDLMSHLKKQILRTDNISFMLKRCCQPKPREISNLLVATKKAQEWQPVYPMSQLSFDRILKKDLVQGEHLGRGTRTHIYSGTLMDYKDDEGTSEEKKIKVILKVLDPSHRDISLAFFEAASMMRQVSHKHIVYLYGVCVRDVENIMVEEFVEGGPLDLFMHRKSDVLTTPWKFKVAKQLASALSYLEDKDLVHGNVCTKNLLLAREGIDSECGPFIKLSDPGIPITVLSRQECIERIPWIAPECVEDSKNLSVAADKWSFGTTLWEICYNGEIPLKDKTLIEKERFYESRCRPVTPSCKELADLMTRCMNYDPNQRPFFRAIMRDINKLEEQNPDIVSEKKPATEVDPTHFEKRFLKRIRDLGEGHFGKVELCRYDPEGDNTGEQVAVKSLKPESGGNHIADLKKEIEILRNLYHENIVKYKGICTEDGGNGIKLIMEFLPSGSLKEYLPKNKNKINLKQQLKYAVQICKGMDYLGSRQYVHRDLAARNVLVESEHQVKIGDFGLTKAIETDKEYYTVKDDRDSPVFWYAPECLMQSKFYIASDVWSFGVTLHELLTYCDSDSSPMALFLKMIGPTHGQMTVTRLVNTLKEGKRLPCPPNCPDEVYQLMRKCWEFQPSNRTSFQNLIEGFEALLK
The test system of series [2] is IL-13 induced STAT6 phosphorylation in BEAS-2B human lung epithelial cells. Kind of series: AlphaScreen JAK1 cellular potency assay in BEAS-2B cells. In kind it is cell-based. A general note: Alpha assays give light when donor and acceptor beads are brought close together.
The nature of series [3]: Dynamic moisture sorption assessment. In kind it is physicochemical. How it is done:
Dynamic moisture sorption (DMS) measurement was performed using a VTI atmospheric microbalance, SGA-100 system (VTI Corp., Hialeah, Fla. 33016). A weighed sample was used and the humidity was lowest possible value (close to 0% RH) at the start of the analysis. The DMS analysis consisted of an initial drying step (˜0% RH) for 120 minutes, followed by two cycles of sorption and desorption with a scan rate of 5% RH/step over the humidity range of 5% RH to 90% RH. The DMS run was performed isothermally at 25° C.

Consider `CCc1cc(O)c(F)cc1-c1ccc2c(-c3nc4c([nH]3)CCN(C[C@H]3COCCN3)C4)n[nH]c2c1` [Example 13, (S)-5-Ethyl-2-fluoro-4-(3-(5-(morpholin-3-ylmethyl)-4,5,6,7-tetrahydro-1H-imidazo[4,5-c]pyridin-2-yl)-1H-indazol-6-yl)phenol], for which the “Lung to Plasma ratio Assay 4” value in series [1] was “A (A denotes a ratio >100)”.
Same read-out and setting: as for `CCc1cc(O)c(F)cc1-c1ccc2c(-c3nc4c([nH]3)CCN(CCNC3CC(OC)C3)C4)n[nH]c2c1` (centres unmarked) [Example 8, 5-Ethyl-2-fluoro-4-(3-(5-(2-((3-methoxycyclobutyl)amino)ethyl)-4,5,6,7-tetrahydro-1H-imidazo[4,5-c]pyridin-2-yl)-1H-indazol-6-yl)phenol], the entry is “A (A denotes a ratio >100)”; as for `CCc1cc(O)c(F)cc1-c1ccc2c(-c3nc4c([nH]3)CCN(C[C@@H]3COCCN3)C4)n[nH]c2c1` [Example 14, (R)-5-Ethyl-2-fluoro-4-(3-(5-(morpholin-3-ylmethyl)-4,5,6,7-tetrahydro-1H-imidazo[4,5-c]pyridin-2-yl)-1H-indazol-6-yl)phenol], “A (A denotes a ratio >100)”.
On to `CCc1cc(O)c(F)cc1-c1ccc2c(-c3nc4c([nH]3)CCN(C3CN(C5CCS(=O)(=O)C5)C3)C4)n[nH]c2c1` (centres unmarked) [Example 1-15], for which, in the series with IL-13 induced pSTAT6, the “pSTAT6 inhibition in the pharmacodynamic assay” value is on record as “noted as exceptions”.
With `CCc1cc(O)c(F)cc1-c1ccc2c(-c3nc4c([nH]3)CCN(CC3CCCOC3)C4)n[nH]c2c1` (centres unmarked) [Example C-3], the “fold less potent than the corresponding compound of the invention in the enzyme assay” value on JAK1 is listed as 6 fold. Besides, the “lung concentration smaller than that of the corresponding compound of the invention by a factor” value (shortened to “lung concentration smaller than that”) in the series with IL-13 induced pSTAT6 is given as 13.
Taken in the same sequence, the figures for `CCc1cc(O)c(F)cc1-c1ccc2c(-c3nc4c([nH]3)CCN(C3CC(C)C3)C4)n[nH]c2c1` (centres unmarked) [Example C-1, 5-Ethyl-2-fluoro-4-(3-(5-(3-methylcyclobutyl)-4,5,6,7-tetrahydro-1H-imidazo[4,5-c]pyridin-2-yl)-1H-indazol-6-yl)phenol] were 2 fold and 36.
As to `CCc1cc(O)c(F)cc1-c1ccc2c(-c3nc4c([nH]3)CCN(CCN3CCC[C@@H]3C)C4)n[nH]c2c1` [Example 15, (S)-5-ethyl-2-fluoro-4-(3-(5-(2-(2-methylpyrrolidin-1-yl)ethyl)-4,5,6,7-tetrahydro-1H-imidazo[4,5-c]pyridin-2-yl)-1H-indazol-6-yl)phenol], in series [1], the “Lung to Plasma ratio Assay 4” value was “A (A denotes a ratio >100)”.
Turning to `CCc1cc(O)c(F)cc1-c1ccc2c(-c3nc4c([nH]3)CCN(CCC(C)C)C4)n[nH]c2c1` [Example C-2], the “fold less potent than the corresponding compound of the invention in the enzyme assay” value at JAK1 is 3 fold. Besides, the “lung concentration smaller than that” value in the series on IL-13 induced pSTAT6 is given as 52.
Consider `CCc1cc(O)c(F)cc1-c1ccc2c(-c3nc4c([nH]3)CCN(CCNC3CC(OC)C3)C4)n[nH]c2c1` (centres unmarked) [Example 3-30], for which the “BEAS-2B pIC50” value in series [2] is “A (A represents a pIC50 value ≥8 (IC50≤10 nM))”.
In the case of `CCc1cc(O)c(F)cc1-c1ccc2c(-c3nc4c([nH]3)CCN(CCN(C)CC(C)C)C4)n[nH]c2c1` [Example 3-33], the “Lung to Plasma ratio Assay 4” value in series [1] is reported as “A (A denotes a ratio >100)”.
Same read-out and setting: as for `CCc1cc(O)c(F)cc1-c1ccc2c(-c3nc4c([nH]3)CCN(CC3CNC3)C4)n[nH]c2c1` [Example 14-7], the entry is “A (A denotes a ratio >100)”.
As for `CCc1cc(O)c(F)cc1-c1ccc2c(-c3nc4c([nH]3)CCN(C3CCN(C)CC3)C4)n[nH]c2c1` [crystalline hydrate, 5-ethyl-2-fluoro-4-(3-(5-(1-methylpiperidin-4-yl)-4,5,6,7-tetrahydro-1H-imidazo[4,5-c]pyridin-2-yl)-1H-indazol-6-yl)phenol], the “hygroscopicity” value in series [3] is on record as “non-hygroscopic”. In addition, the “weight gain (dynamic moisture sorption)” value in series [3] (5% to 90% relative humidity, 25° C.) was “less than 0.12%”.
Regarding `CCc1cc(O)c(F)cc1-c1ccc2c(-c3nc4c([nH]3)CCN(CCNC3(C#N)CC3)C4)n[nH]c2c1` [Example 3-1], the “pSTAT6 inhibition in the pharmacodynamic assay” value in the series on IL-13 induced pSTAT6 was “noted as exceptions”.
Turning to `CCc1cc(O)c(F)cc1-c1ccc2c(-c3nc4c([nH]3)CCN(C[C@@H]3CCCN3C)C4)n[nH]c2c1` [Example 11, (S)-5-ethyl-2-fluoro-4-(3-(5-((1-methylpyrrolidin-2-yl)methyl)-4,5,6,7-tetrahydro-1H-imidazo[4,5-c]pyridin-2-yl)-1H-indazol-6-yl)phenol], the “Lung to Plasma ratio Assay 4” value in series [1] was “A (A denotes a ratio >100)”.
Consider `CCc1cc(O)c(F)cc1-c1ccc2c(-c3nc4c([nH]3)CCN(C3CCC(C)CC3)C4)n[nH]c2c1` (centres unmarked) [Example C-4], for which the “fold less potent than the corresponding compound of the invention in the enzyme assay” value on JAK1 is reported as 2.5 fold. For the same compound, the “lung concentration smaller than that” value in the series on IL-13 induced pSTAT6 amounted to 23.

Values taken from patent US10526330B2, “JAK kinase inhibitor compounds for treatment of respiratory disease” (THERAVANCE BIOPHARMA R&D IP, LLC, priority 2015, dated 2020).
